The target in series [1] is T1, Folate Uptake Transporter (PCFT) in Caco2 cells (Homo sapiens, UniProt Q96NT5).
T1 construct: These cells express high levels of the PCFT/SLC46A1 receptor; host or cells: Caco-2
T1 sequence (Q96NT5 1-459): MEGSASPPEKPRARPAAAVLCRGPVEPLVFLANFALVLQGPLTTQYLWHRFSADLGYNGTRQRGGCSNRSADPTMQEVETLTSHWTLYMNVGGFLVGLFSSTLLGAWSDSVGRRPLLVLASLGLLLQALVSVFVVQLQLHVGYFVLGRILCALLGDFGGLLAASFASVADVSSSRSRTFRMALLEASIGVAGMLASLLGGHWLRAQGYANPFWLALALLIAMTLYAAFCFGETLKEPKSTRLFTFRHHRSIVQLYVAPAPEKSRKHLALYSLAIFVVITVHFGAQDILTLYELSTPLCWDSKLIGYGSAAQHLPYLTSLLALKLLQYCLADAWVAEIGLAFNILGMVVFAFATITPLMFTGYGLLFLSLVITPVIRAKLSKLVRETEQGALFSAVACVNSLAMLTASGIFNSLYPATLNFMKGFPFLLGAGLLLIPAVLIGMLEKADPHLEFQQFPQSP
As to the kind of experiment: Folate uptake transporter inhibition in Caco2 cell line ([3H]-folic acid uptake). In kind it is cell-based. The following applies: for inhibition at 50 µM: Caco-2, pH 5.5, test conc. 50 μM, read-out: Percentage inhibition (%); for effect on folate transport / uptake: Caco-2 cells, 50 μM. As for the experimental part: Cell plates were prepared using Caco-2 cell culture medium consisting of Dulbecco's Modified Eagle's Medium (DMEM) with high glucose and L-glutamine supplemented with: 10% FBS, 1× penicillin-streptomycin mixture and 1×non-essential amino acids (NEAA) and medium was incubated at 37° C., 5% CO2 for 0.5 hour. Plates were prepared for cell seeding. Caco-2 cells from American Type Culture Collection at passage 44 were cultivated in T-75 flasks in a cell culture incubator set at 37° C., 5% CO2, 95% relative humidity. Cells reached 80-90% confluence before detaching and splitting. Cultivated cells in T-75 flasks were rinsed with 5 mL PBS and aspirated off. Then, 3 mL trypsin/EDTA was added, and cells were incubated at 37° C. for approximately 5 minutes or until the cells detached and floated. Trypsin/EDTA was inactivate by adding excess serum containing medium. Cell suspension was removed and transferred to a conical tube and cells were pelleted by centrifugation at 120×g for 5 minutes. Cells were resuspended in seeding medium at a density of 3×10^4 cells/well in 24-well plates. The plate was incubated for 8-10 days. The medium was replaced every other day, beginning no sooner than 48 hours after initial plating.
(§1) The transport buffer (HBSS with 10 mM MES, pH 5.5) was prepared by weighing 1.952 g of MES and 0.35 g sodium hydrogen carbonate and adding into 900 mL of pure water followed by sonication to dissolve the content. Following the transfer of 100 mL of 10×HBSS into the solution. The solution was placed on a stirrer, the pH was slowly adjusted with hydrochloric acid to 5.5, and then the solution was filtered to get HBSS solution (with 10 mM MES, pH 5.5).
The [3H]-folic acid (10 nM) substrate solution was prepared using [3H]-folic acid (1 mCi/ml) diluted with pH 5.5 buffer. Next, the [3H]-folic acid (10 nM) substrate solution+test inhibitor (X μM) and the [3H]-folic acid (10 nM) substrate solution+positive control inhibitor (pemetrexed, 50 μM) were prepared. For the solution without inhibitor, DMSO was diluted with corresponding substrate solution to get the working incubation solution.
The pre-incubation solution was prepared by adding the same final concentration of test compound (X μM) and the known inhibitor (pemetrexed, 50 μM) in pH 5.5 buffer. For the solution without inhibitor, DMSO diluted with in pH 5.5 buffer was used as the vehicle control.
When the 8-10 day Caco-2 cultured cells reached confluence and were differentiated, they were ready to be used for transport studies. The Caco-2 plate was removed from the incubator, and the medium was removed from the 24-well Plates. Next, cells were washed 3 times with 300 μL of pre-warmed pH 5.5 buffer. Then, 300 μL of pre-incubation solution was added into each well and the plate was placed at 37° C. for 30 minutes. The assay was performed in duplicate. After 30 minutes pre-incubation, the pre-incubation solution was aspirated, and 300 μL of pre-warmed working incubation solution was added to start the transporter assay. After 6 minutes incubation, cells were washed by quickly adding/aspirating 300 μL of ice-cold pH 5.5 buffer 4 times. The pH 5.5 buffer was removed and 300 μL of pure water was added into each well. Freeze-thaw in liquid nitrogen and 37° C. incubator was repeated for 3 times to lyse cells. After, centrifugation at 3,300 g was performed for 30 seconds. Next, 50 μL of supernatant was transferred to Isoplate-96 Microplate. 200 μL of scintillation fluid was added to the 50 μL sample and radioactivity was measured by liquid scintillation counting in a MicroBeta 2 scintillation counter for 1 min/sample.
A BCA Kit was used to determine the protein content for each well. Bovine serum albumin at 2, 1, 0.5, 0.25, 0.125, 0.0625, 0.0313, 0.0156, 0.00781 and 0.00391 mg/mL was prepared in Phosphate Buffer Saline (PBS, pH 7.4). 10 μL of supernatant was mixed from the previous step with the same volume of PBS. […]
On the technique in general: Passage across Caco-2 layers is used to estimate intestinal permeability.

Series [2] has as its target T1, Folate Uptake Transporter (PCFT) in Caco2 cells. Kind of series: Folate uptake transporter substrate assessment in Caco2 cell line (compound uptake with and without pemetrexed). The following applies: for cell permeability: Caco-2; for Uptake Ratio(−Inhibitor/+Inhibitor): human, Caco-2, 6 min, 1 μM, pH 5.5. In kind it is in vitro ADME. As for the experimental part:
Cell Plates were Prepared According to the Methods of Example 8 Using Caco-2 Cells from American Type Culture Collection at Passage 37.
as §1
The test compounds and folic acid (1 μM) substrate solutions were prepared by diluting with pH 5.5 buffer. Next, the test compounds and folic acid (1 μM) substrate solution+positive control inhibitor (pemetrexed, 50 μM) were prepared. For the solution without inhibitor, DMSO was diluted with corresponding substrate solution to get the working incubation solution.
For the solution with inhibitor, the pre-incubation solution was prepared by adding the positive control inhibitor (pemetrexed, 50 μM) in pH 5.5 buffer. For the solution without inhibitor, DMSO was diluted with pH 5.5 buffer and used as the vehicle control.
When the 8-10 day Caco-2 cultured cells reached confluence and were differentiated, they were ready to be used for transport studies. The Caco-2 plate was removed from the incubator, and the medium was removed from the 24-well Plates. Next, cells were washed 3 times with 300 μL of pre-warmed pH 5.5 buffer. Then, 300 μL of pre-incubation solution was added into each well and the plate was placed at 37° C. for 30 minutes. The assay was performed in duplicate. After 30 minutes pre-incubation, the pre-incubation solution was aspirated, and 300 μL of pre-warmed working incubation solution was added to start the transporter assay. After 6 minutes incubation, cells were washed by quickly adding/aspirating 300 μL of ice-cold pH 5.5 buffer 4 times. The pH 5.5 buffer was removed and 300 μL of pure water was added into each well. Freeze-thaw in liquid nitrogen and 37° C. incubator was repeated for 3 times to lyse cells. After, centrifugation at 3,300 g was performed for 30 seconds. Next, 50 μL of supernatant was transferred to 200 μL methanol or acetonitrile containing internal standard and centrifuged at 3,300 g for 30 minutes. 200 μL aliquots of the supernatants were used for LC-MS/MS analysis. Standards were treated the same as samples.
A BCA Kit was used to determine the protein content for each well. Bovine serum albumin at 2, 1, 0.5, 0.25, 0.125, 0.0625, 0.0313, 0.0156, 0.00781 and 0.00391 mg/mL was prepared in Phosphate Buffer Saline (PBS, pH 7.4). 10 μL of supernatant was mixed from the previous step with the same volume of PBS. 20 μL of standard or test sample was added into 96-well clear plate and mixed with 200 μL working reagent. After 30 minutes incubation at 37° C., the absorbance at 562 nm was measured on the microplate reader.
Standard-curves: prepared 200 μM DMSO Folic acid solution, samples of 1000 nm, 300 nm, 100 nm, 30 nM, and 10 nM prepared using a PH 5.5 buffer, and a PH 5.5 buffer containing 50 μM of pemetrexed, respectively.
All calculations were carried out using Microsoft Excel. Peak areas were determined from extracted ion chromatograms. Uptake rate, in unit of pmol/mg protein/min, is calculated using the following equation: Uptake rate=Conc./(Protein×Time); Conc. is concentration of drug in cell lysate (nM), Protein is the protein concentration of cell lysate (mg/mL), and Time is the incubation time (minute). Uptake ratio is calculated using the following equation: Uptake ratio=Uptake rate without inhibitor/Uptake rate with inhibitor. Note: The compound was considered as a potential substrate of a particular transporter when the uptake ratio was greater than 2.

Series [3] has the same target. Described as above. In kind it is in vitro ADME. As to conditions: positive control, test conc. 0.01 μM, radiolabelled.
Setting [4] is: [3H]-folic acid 10 nM, 30 min pre-incubation, 6 min incubation.

This is an account of results in patent US20250002492A1, “COMPOSITIONS OF FOLATE ABSORPTION INHIBITORS AND METHODS THEREOF” (THE TEXAS A&M UNIVERSITY SYSTEM, priority 2023, published 2025).

As for `Cc1ccc(NC(=O)N2Cc3[nH]cnc3CC2c2nc(-c3ccc4c(c3)OCO4)no2)cc1` (stereo not shown) [MPOL_D_1, 6-(3-(benzo[d][1,3]dioxol-5-yl)-1,2,4-oxadiazol-5-yl)-N-(p-tolyl)-3,4,6,7-tetrahydro-5H-imidazo[4,5-c]pyridine-5-carboxamide], the inhibition at 50 µM in series [1] (setting [4]) was 25.5%. Further, in series [1] (pH 5.5), the “effect on folate transport / uptake” value is “inhibit folate uptake”. In addition, in series [1] (test conc. 50 μM, [3H]-folic acid 10 nM, pH 5.5, 30 min pre-incubation, 6 min incubation), the “Percentage inhibition (%)” value worked out at 25.25%. For the same compound, in series [2], the “cell permeability” value was “highly permeable” and the “Uptake Ratio(−Inhibitor/+Inhibitor)” value stood at 1.02.
As for `Cc1cccc(-c2noc(C3Cc4nc[nH]c4CN3C(=O)Nc3cccc(F)c3)n2)c1` (stereo not shown) [MPOL_D_2, N-(3-fluorophenyl)-6-(3-(m-tolyl)-1,2,4-oxadiazol-5-yl)-3,4,6,7-tetrahydro-5H-imidazo[4,5-c]pyridine-5-carboxamide], in series [1] (setting [4]), the inhibition at 50 µM was -18.7%. For the same compound, in series [1] (pH 5.5), the “effect on folate transport / uptake” value is on record as “promoted folate transport”. In series [2], the “cell permeability” value is on record as “highly permeable” and the “Uptake Ratio(−Inhibitor/+Inhibitor)” value is reported as 0.86.
Consider `Nc1nc2[nH]cc(CCc3ccc(C(=O)N[C@@H](CCC(=O)O)C(=O)O)cc3)c2c(=O)[nH]1` [Pemetrexed, reference compound], for which the inhibition at 50 µM in series [1] (setting [4]) was 62.4%.
Turning to Folic acid [3,5,7,9-3H] sodium salt, the “Uptake Rate (pmol/mg protein/min)” value was found to be 0.02 pmol/mg protein/min in series [3] (DMSO (no inhibitor)) and 0.01 pmol/mg protein/min in series [3] (with pemetrexed 50 μM). For the same compound, in series [3] (pemetrexed 50 μM), the “Uptake Ratio(−Inhibitor/+Inhibitor)” value came out at 2.66.

By inhibition is commonly meant the change of the read-out against control, counted positive when it falls.
